Molecules are shown by their SMILES.

The test system of data set [1] is platelet agglutination caused by PAF. The data set can be described thus: Inhibition of platelet agglutination caused by human PAF (platelet-rich plasma, optical method of Born). Type of data set: cell-based. Particulars: PAF at minimum concentration for maximum agglutination, read-out: Agglutination inhibiting activity IC50. How it is done:
Effect on the Agglutination Caused by Human PAF
One part by volume of a 3.8% sodium citrate solution was added to 9 parts by volume of blood sampled from the forearm of a healthy adult to whom had been administered no medicine for at least two weeks. A platelet-rich plasma (PRP) was prepared by centrifugation. The inhibition of the platelet agglutination was determined by an optical method of Born et al. with a Hematolaser II® (a platelet agglutination meter of Niko Bioscience Co.). PAF was dissolved in Tyrode solution [Ca^++ (+)] to form a solution having the minimum concentration for causing the maximum agglutination. The test compound was dissolved in a physiological saline.
The agglutination inhibiting activity of the test compound was determined from the rate of inhibition of the maximum light transmittance (maximum agglutination rate) caused by PAF in control PRP. IC50 was determined from the inhibition curve.
The numeral in the column of the Test compound in Table 1 refers to the Example number of the compound.

The target in data set [2] is T1, Human PAF Receptor (Homo sapiens, UniProt P25105).
T1 construct: The platelets were sampled from healthy males by an ordinary method; endogenous in cells; host or cells: human platelets from healthy males (intact platelet suspension)
T1 sequence (P25105 whole entry): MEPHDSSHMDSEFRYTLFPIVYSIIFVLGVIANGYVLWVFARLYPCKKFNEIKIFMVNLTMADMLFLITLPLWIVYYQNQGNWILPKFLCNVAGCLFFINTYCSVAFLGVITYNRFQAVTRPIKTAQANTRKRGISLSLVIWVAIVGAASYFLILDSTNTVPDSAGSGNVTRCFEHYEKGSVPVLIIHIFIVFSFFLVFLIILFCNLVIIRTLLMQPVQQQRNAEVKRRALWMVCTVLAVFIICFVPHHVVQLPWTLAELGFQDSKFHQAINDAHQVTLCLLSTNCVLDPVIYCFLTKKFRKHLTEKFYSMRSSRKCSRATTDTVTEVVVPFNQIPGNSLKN
Put plainly: Human PAF receptor binding assay (3H-PAF, platelets). Particulars: 3H-PAF 0.6 to 1 nM, 37° C., read-out: PAF receptor antagonism IC50. How it is done: Human PAF Receptor Binding Assay
The platelets were sampled from healthy males by an ordinary method and suspended in a binding buffer [10 mM phosphate-buffered saline (pH 7.0) containing 0.1 w/v % of BSA and 0.9 mM of CaCl2) to form a suspension having a concentration of 10^8 /460 μl. 20 μl of a solution of the test compound in the binding buffer was placed in a polypropylene tube and then 460 μl of the platelet suspension was added thereto. The mixture was subjected to a vortex treatment and then incubated at 37° C. for 6 min. 20 μl of a solution of ^3 H-PAF in the binding buffer (final ^3 H-PAF concentration: 0.6 to 1 nM) was added thereto and the mixture was incubated for 6 min. 3 ml of a washing solution (saline containing 0.1 w/v % of BSA) cooled with ice was added thereto to terminate the reaction. The reaction mixture was filtered by suction through a glass filter (Whatman GF/C). The glass filter was dried and the radioactivity thereof was determined with a liquid scintillation counter.
The inhibition % was calculated according to the following equation and IC50 so was determined by interpolation from the figure. [formula] wherein: total binding: dpm obtained when the concentration of the medicine or PAF is 0,
non-specific binding: dpm obtained when 10^-5 M of cold PAF was added.

Data set [3] concerns blood pressure drop induced by PAF. The data set can be described thus: Action on the blood pressure drop induced by PAF. It is filed as in vivo, F344 rats. Particulars: Rattus norvegicus, iv, 0.05 h; 0.01 mg/kg, i.v., three minutes after 0.5 μg/kg PAF; ratio of blood pressure rise to drop; read-out: Recovery rate. The procedure:
Action on the Blood Pressure Drop Induced by […]
Cannulae were inserted into the carotid and the jugular of each of F344 rats anesthetized with Pento (50 mg/kg, i. p.). The blood pressure was determined at the carotid and 0.5 ml/kg of PAF or the test compound was given through the jugular. Three minutes after the injection of 0.5 μg/kg of PAF, the test compound was given and the antagonism thereof was evaluated.
The recovery rate shown in Table 4 is the ratio of the blood pressure rise by the test compound to the drop thereof.

Data set [4] in a line: Determination of stability in aqueous solution. It is filed as physicochemical. Particulars: pH 7.4, 37° C., 0.5M sodium phosphate; read-out: Half-value period of disappearance due to hydrolysis (t1/2) (converted). The procedure:
Determination of Stability in Aqueous Solution
These compounds were unstable in a neutral or alkaline aqueous solution mainly due to the hydrolysis reaction of the N-acetyl or N-benzoyl group. The relationships between the pH and decomposition rate of several compounds were examined to find that they have the same pattern. The decomposition rate constant under conditions (pH 7.4, 37° C.) where they were relatively easily decomposed was determined and the stabilities of the compounds were compared with one another.
9 parts by volume of a buffer solution (0.5M sodium phosphate, pH 7.4) was added to 1 part by volume of an aqueous sample solution (1 mg/ml) and the mixture was kept at 37° C. The sampling was conducted at appropriate time intervals and the residual rate of an unreacted compound was determined by reversed phase high-performance liquid chromatography. Since the decomposition rate of most of the compounds can be approximately represented by the first-order decomposition rate equation, the decomposition rate constant was determined by the least squares method.

The subject of data set [5] is lethal activity of PAF. The data set can be described thus: Preventive effect against the lethal activity of PAF. It is filed as in vivo, ICR male mice. Particulars: 15 minutes before PAF i.v.; for number of dead mice / number of mice (Survival rate): after one hour; for Survival rate: survival after one hour. How it is done:
Preventive Effect Against the Lethal Activity of PAF:
A physiological saline or the test compound was given to ICR male mice weighing around 30 g by intravenous injection. After 15 minutes, 100 wg/kg of PAF was given to them by intravenous injection. Life and death of them were examined after one hour and the survival rate was determined.
The survival rate is given by percentage. The denominator of the fraction
is the number of the mice and the numerator is the number of the dead

By IC50 is commonly meant the midpoint of a concentration-inhibition curve. On to `CCCCCCCCCCCCCCCCCCOC(=O)N1CCN(C(=O)OCC(COC(=O)N(Cc2cccc[n+]2CC)C(=O)c2ccccc2OC)OC)CC1` (centres unmarked) [Example 6, 1-Ethyl-2-[N-(2-methoxy)benzoyl-N-{2-methoxy-3-(4-octadecyloxycarbonyl)piperazylcarbonyloxy}propoxycarbonyl]aminomethylpyridinium chloride], for which the half-maximal inhibitory concentration (IC50) was determined as 160 nM in data set [1] and 0.19 nM in data set [2]. The inhibition in vivo at 0.01 mg/kg in data set [3] was found to be 88.5%. In addition, the half-life in data set [4] was 28.2 h.

For `CCCCCCCCCCCCCCCCCCNS(=O)(=O)c1ccc(CNC(=O)OCC(COC(=O)N(Cc2cccc[n+]2CC)C(=O)c2ccccc2OC)OC)cc1` (centres unmarked) [Example 13, 1-Ethyl-2-[N-(2-methoxy)benzoyl-N-{2-methoxy-3-(4-octadecylsulfamoyl)benzylcarbamoyloxypropyloxy}carbonyl]aminomethylpyridinium chloride], the half-inhibitory concentration (IC50) in data set [1] came out at 72 nM; in data set [2], 0.25 nM. Besides, the entries for the “number of dead mice / number of mice (Survival rate)” value in data set [5] (0.03 mg/kg i.v.), in data set [5] (0.1 mg/kg i.v.) and in data set [5] (0.3 mg/kg i.v.) were 3/7, 0/7 and 0/7, respectively. Also, the Survival rate in data set [5] (0.03 mg/kg i.v.) is on record as 57.1%; in data set [5] (0.1 mg/kg i.v.), 100%; in data set [5] (0.3 mg/kg i.v.), 100%. Moreover, in data set [3], the inhibition in vivo at 0.01 mg/kg came out at 89.7%. Moreover, the half-life in data set [4] was 21.5 h.

For the compound `CCCCCCCCCCCCCCCCCCNC(=O)OCCCNC(=O)OCC(COC(=O)N(Cc1cccc[n+]1CC)C(=O)c1ccccc1OC)OC` (centres unmarked) [Example 14, 1-Ethyl-2-[N-(2-methoxy)benzoyl-N-{2-methoxy-3-(3-octadecylcarbamoyloxy)propylcarbamoyloxy}propoxycarbonyl]aminomethylpyridinium chloride], the figures for the half-inhibitory concentration (IC50) in data set [1] and in data set [2] were 44 nM and 0.19 nM, respectively. Moreover, in data set [3], the inhibition in vivo at 0.01 mg/kg was 96.8%. For the same compound, in data set [4], the half-life was 26.1 h.

On to `CCCCCCCCCCCCCCCCCCNC(=O)OC1CCN(C(=O)OCC(COC(=O)N(Cc2cccc[n+]2CC)C(=O)c2ccccc2OC)OC)CC1` (centres unmarked) [Example 15, 1-Ethyl-2-[N-(2-methoxy)benzoyl-N-{2-methoxy-3-(4-octadecylcarbamoyloxy)piperidinocarbonyloxypropyloxyl}carbonyl]aminomethylpyridinium chloride], for which the IC50 was 80 nM in data set [1] and 0.19 nM in data set [2]. For the same compound, the “number of dead mice / number of mice (Survival rate)” value in data set [5] (0.03 mg/kg i.v.) is 2/7; in data set [5] (0.1 mg/kg i.v.) it was 3/7; in data set [5] (0.3 mg/kg i.v.), 0/7. The figures for the Survival rate in data set [5] (0.03 mg/kg i.v.), in data set [5] (0.1 mg/kg i.v.) and in data set [5] (0.3 mg/kg i.v.) were 71.4%, 57.1% and 100%, respectively. In addition, the inhibition in vivo at 0.01 mg/kg in data set [3] came out at 94.6%. For the same compound, the half-life in data set [4] is 24.4 h.

Consider `CCCCCCCCCCCCCCCCCCOc1c(OC)cc(COCC(COC(=O)N(Cc2cccc[n+]2CC)C(=O)c2ccccc2OC)OC)cc1OC` (centres unmarked) [Example 18, 1-ethyl-2-(((N-((3,5-dimethoxy-4-octadecyloxy)benzyloxy-2-methoxypropyloxy))carbonyl-N-(2-methoxy)benzoyl))) aminomethyl pyridinium chloride], for which the figures for the IC50 in data set [1] and in data set [2] were 660 nM and 0.71 nM, respectively. Further, in data set [3], the inhibition in vivo at 0.01 mg/kg came out at 74.1%. In addition, the half-life in data set [4] is 37.7 h.
